# Assay results published in US20220289708A1, “SUBSTITUTED N-PHENYL URACILS, SALTS THEREOF AND THEIR USE AS HERBICIDAL AGENTS” (Bayer Aktiengesellschaft, priority 2019, published 2022).
# How the values were obtained:
# Assay in all cases: Post-emergence herbicidal action
# Type in all cases: in vivo
# [1] = system: Abutilon theophrasti; details: rated visually after about 3 weeks vs untreated controls
# How it was run: (§1)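 Test plants, raised in sandy loam in the greenhouse, were treated 2 to 3 weeks after sowing at application rates of 20 g/ha or lower. Scoring compared treated with untreated plants roughly 3 weeks on, where 100% meant death and 0% meant no visible effect.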
# [2] = system: Alopecurus myosuroides; details: rated visually after about 3 weeks vs untreated controls
# How it was run: as §1
# [3] = system: Amaranthus retroflexus; details: rated visually after about 3 weeks vs untreated controls
# How it was run: as §1
# [4] = system: Avena fatua; details: rated visually after about 3 weeks vs untreated controls
# How it was run: as §1
# [5] = system: Digitaria sanguinalis; details: rated visually after about 3 weeks vs untreated controls
# How it was run: as §1
# [6] = system: Echinochloa crus-galli; details: rated visually after about 3 weeks vs untreated controls
# How it was run: as §1
# [7] = system: Hordeum murinum
# How it was run: as §1
# [8] = system: Lolium rigidum; details: rated visually after about 3 weeks vs untreated controls
# How it was run: as §1
# [9] = system: Matricaria inodora; details: rated visually after about 3 weeks vs untreated controls
# How it was run: as §1
# [10] = system: Pharbitis purpurea; details: application rate 5 g/ha, rated visually after about 3 weeks vs untreated controls
# How it was run: as §1
# [11] = system: Polygonum convolvulus; details: application rate 5 g/ha
# How it was run: as §1
# [12] = system: Setaria viridis; details: application rate 5 g/ha, rated visually after about 3 weeks vs untreated controls
# How it was run: as §1
# [13] = system: Stellaria media; details: application rate 5 g/ha, rated visually after about 3 weeks vs untreated controls
# How it was run: as §1
# [14] = system: Veronica persica
# How it was run: as §1
# [15] = system: Viola tricolor; details: application rate 5 g/ha
# How it was run: as §1
SMILES,Alopecurus myosuroides (efficacy in %) ([2]; application rate 20 g/ha),Avena fatua (efficacy in %) ([4]; application rate 20 g/ha),Hordeum murinum (efficacy in %) ([7]; application rate 5 g/ha),Lolium rigidum (efficacy in %) ([8]; application rate 20 g/ha),Matricaria inodora (efficacy in %) ([9]; application rate 5 g/ha),Pharbitis purpurea (efficacy in %) [10],Polygonum convolvulus (efficacy in %) [11],Setaria viridis (efficacy in %) [12],Stellaria media (efficacy in %) [13],Veronica persica (efficacy in %) ([14]; application rate 5 g/ha),Viola tricolor (efficacy in %) [15],Abutilon theophrasti (efficacy in %) ([1]; application rate 5 g/ha),Alopecurus myosuroides (efficacy in %) ([2]; application rate 5 g/ha),Amaranthus retroflexus (efficacy in %) ([3]; application rate 5 g/ha),Digitaria sanguinalis (efficacy in %) ([5]; application rate 5 g/ha),Echinochloa crus-galli (efficacy in %) ([6]; application rate 5 g/ha),Hordeum murinum (efficacy in %) ([7]; application rate 20 g/ha),Lolium rigidum (efficacy in %) ([8]; application rate 5 g/ha),Avena fatua (efficacy in %) ([4]; application rate 5 g/ha),other results
"COCCOC(=O)COc1ncccc1Sc1cc(-n2c(=O)cc(C(F)(F)F)n(C)c2=O)c(F)cc1Cl [I.1-1, 2-Methoxyethyl {[3-({2-chloro-4-fluoro-5-[3-methyl-2,6-dioxo-4-(trifluoromethyl)-3,6-dihydropyrimidin-1(2H)-yl]phenyl}sulfanyl)pyridin-2-yl]oxy}acetate]",80%,80%,80%,80%,100%,100%,100%,100%,90%,100%,100%,,,,,,,,,Abutilon theophrasti (efficacy in %) ([1]; application rate 20 g/ha): 100%; Amaranthus retroflexus (efficacy in %) ([3]; application rate 20 g/ha): 100%; Digitaria sanguinalis (efficacy in %) ([5]; application rate 20 g/ha): 100%; Echinochloa crus-galli (efficacy in %) ([6]; application rate 20 g/ha): 100%
Cn1c(C(F)(F)F)cc(=O)n(-c2cc(Sc3cccnc3OCC(=O)OCC3CCCO3)c(Cl)cc2F)c1=O (centres unmarked) [I.1-71],,80%,,,100%,100%,100%,100%,100%,100%,100%,100%,80%,100%,100%,100%,80%,100%,,
COCCOC(=O)CSc1ncccc1Sc1cc(-n2c(=O)cc(C(F)(F)F)n(C)c2=O)c(F)cc1Cl [I.10-1],,80%,,,90%,80%,100%,80%,100%,,100%,80%,80%,80%,80%,100%,90%,,,Veronica persica (efficacy in %) ([14]; application rate 20 g/ha): 90%
COCCCOC(=O)CSc1ncccc1Sc1cc(-n2c(=O)cc(C(F)(F)F)n(C)c2=O)c(F)cc1Cl [I.10-26],,,,80%,,100%,100%,100%,100%,80%,100%,100%,80%,100%,,,,,,Digitaria sanguinalis (efficacy in %) ([5]; application rate 20 g/ha): 100%; Echinochloa crus-galli (efficacy in %) ([6]; application rate 20 g/ha): 100%; Matricaria inodora (efficacy in %) ([9]; application rate 20 g/ha): 100%
COCCOC(=O)COc1ncccc1Oc1cc(-n2c(=O)cc(C(F)(F)F)n(C)c2=O)c(F)cc1Cl [I.15-1],,,,100%,100%,100%,100%,100%,100%,100%,100%,100%,80%,100%,100%,100%,100%,,90%,
COCCOCCOC(=O)COc1ncccc1Oc1cc(-n2c(=O)cc(C(F)(F)F)n(C)c2=O)c(F)cc1Cl [I.15-23],100%,,80%,,90%,100%,100%,100%,100%,100%,100%,100%,,100%,100%,100%,,80%,80%,
"COCCCOC(=O)COc1ncccc1Oc1cc(-n2c(=O)cc(C(F)(F)F)n(C)c2=O)c(F)cc1Cl [I.15-26, 3-Methoxypropyl [(3-{2-chloro-4-fluoro-5-[3-methyl-2,6-dioxo-4-(trifluoromethyl)-3,6-dihydropyrimidin-1(2H)-yl]phenoxy}pyridin-2-yl)oxy]acetate]",90%,90%,,,,100%,100%,100%,100%,100%,100%,100%,,100%,100%,100%,100%,80%,,
Cn1c(C(F)(F)F)cc(=O)n(-c2cc(Oc3cccnc3OCC(=O)OCC3CCCO3)c(Cl)cc2F)c1=O (centres unmarked) [I.15-71],,80%,,100%,,100%,100%,100%,100%,100%,100%,100%,90%,100%,100%,100%,100%,,,Matricaria inodora (efficacy in %) ([9]; application rate 20 g/ha): 100%
"Cn1c(C(F)(F)F)cc(=O)n(-c2cc(Oc3cccnc3OCC(=O)OCC3CCOC3)c(Cl)cc2F)c1=O (centres unmarked) [I.15-72, Tetrahydrofuran-3-ylmethyl [(3-{2-chloro-4-fluoro-5-[3-methyl-2,6-dioxo-4-(trifluoromethyl)-3,6-dihydropyrimidin-1(2H)-yl]phenoxy}pyridin-2-yl)oxy]acetate]",,,90%,100%,90%,100%,100%,100%,100%,100%,100%,100%,90%,100%,100%,100%,,,80%,
